The text below walks through data of ChEMBL document CHEMBL1147240, “Lactones from the leaves of Litsea japonica and their anti-complement activity” (J Nat Prod, 2003).

The assay can be described thus: Inhibition of human serum complement system-mediated hemolysis.

Turning to `CC/C=C/CCCCCCCC/C=C/C1=CC(C)OC1=O` (single isomer, unassigned) [LITSEALACTONE A], the IC50 (as a rule, the concentration at which inhibition is half-maximal) was determined as 787 µM.

In turn, `C=C/C=C/CCCCCCCC/C=C/C1=C[C@H](C)OC1=O` [AKOLACTONE B] gave an IC50 of 58 µM.

In the case of `C#CCCCCCCCC/C=C/C1=C[C@H](C)OC1=O` [HAMABIWALACTONE A], the IC50 amounted to 714 µM.

Regarding `C=CCCCCCCCC/C=C/C1=C[C@H](C)OC1=O` [HAMABIWALACTONE B], the IC50 turned out to be 149 µM.

`O=C(/C=C/c1ccc(O)c(O)c1)O[C@H](Cc1ccc(O)c(O)c1)C(=O)O` [ROSMARINIC ACID]: the IC50 stood at 180 µM.
